According to patent US9968089B2, “Microbicidal composition” (Dow Global Technologies LLC, priority 2013, dated 2018):
Like-named read-outs stand apart in the source and are kept apart here.

Experiments:
Assay in all cases: MIC and synergy index test in 96 well microtiter plates
Type in all cases: cell-based
[1] = test system: Pseudomonas aeruginosa ATCC #15442; details: 1/10 TSB
Method: Surfactants and biocides were evaluated for synergy by determining the synergy index (S.I.) of the combination. Synergy index was calculated based on minimum inhibitory concentrations (MIC) of two antimicrobial compounds (A and B) alone and in combinations. The tests organisms were Gram negative bacteria (Pseudomonas aeruginosa ATCC #15442), Gram positive bacteria (Staphylococcus aureus ATCC #6538), yeast (Candida albicans ATCC#10203) and mold (Aspergillus niger ATCC#16404). […] The test was carried out in 96 well microtiter plates. • Surf. A R^1O(CH2CH(CH3)O)5(CH2CH2O)9H, where R^1 is 2-ethylhexyl • Surf. D R^2O(CH2CH(CH3)O)3(CH2CH2O)5H • Surf. E R^2O(CH2CH(CH3)O)3(CH2CH2O)7H • In Surf. D and Surf. E, R^2 is a mixture of C8-C14 linear alkyl groups (70% C8-C10 linear alkyl and 30% C12-C14 linear alkyl)
(§1) The pH of the Triptic soy broth was 7.3 and the Potato dextrose broth was 5.1.
(§2) SI is calculated as follows: Ca/CA+Cb/CB=Synergy Index(“SI”)
(§3) Wherein: • CA=concentration of compound A in ppm, acting alone, which produced an end point (MIC of Compound A). • Ca=concentration of compound A in ppm, in the mixture, which produced an end point. • CB=concentration of compound B in ppm, acting alone, which produced an end point (MIC of Compound B). • Cb=concentration of compound B in ppm, in the mixture, which produced an end point.
(§4) When the sum of Ca/CA and Cb/CB is greater than one, antagonism is indicated.

[2] = test system: Staphylococcus aureus ATCC #6538; details: ATCC6538, 24 h
Method: (§5) Surfactants and biocides were evaluated for synergy by determining the synergy index (S.I.) of the combination. Synergy index was calculated based on minimum inhibitory concentrations (MIC) of two antimicrobial compounds (A and B) alone and in combinations. The tests organisms were Gram negative bacteria (Pseudomonas aeruginosa ATCC #15442), Gram positive bacteria (Staphylococcus aureus ATCC #6538), yeast (Candida albicans ATCC#10203) and mold (Aspergillus niger ATCC#16404). Contact time for the bacteria was 24 and 48 hours, yeast was 48 and 72 hrs, and 3 and 7 days for mold. The test was carried out in 96 well microtiter plates. • Surf. A R^1O(CH2CH(CH3)O)5(CH2CH2O)9H, where R^1 is 2-ethylhexyl • Surf. D R^2O(CH2CH(CH3)O)3(CH2CH2O)5H • Surf. E R^2O(CH2CH(CH3)O)3(CH2CH2O)7H • In Surf. D and Surf. E, R^2 is a mixture of C8-C14 linear alkyl groups (70% C8-C10 linear alkyl and 30% C12-C14 linear alkyl)
as §1, §2, §3, §4

[3] = test system: Aspergillus niger ATCC#16404; details: PDB
Method: as §5, §1, §2, §3, §4

[4] = test system: Candida albicans ATCC#10203; details: PDB
Method: as §5, §1, §2, §3, §4

SMILES: O=[N+]([O-])C(CO)(CO)CO [Tris Nitro, tris(hydroxymethyl)nitromethane]
- MIC ([1]; ATCC15442, 24 h, A: Surf. D, B: TrisNitro, Ps. aeruginosa ATCC#15442, 24 hrs, inoculum 1.16E+08, read-out: CB (MIC of compound B acting alone)): 800 µg/mL
- MIC ([1]; ATCC15442, 24 h, A: Surf. E, B: TrisNitro, Ps. aeruginosa ATCC#15442, 24 hrs, inoculum 5.727E+07 CFU/ml, read-out: CB (MIC of compound B acting alone)): 1000 µg/mL
- MIC ([2]; A: Surf. E, B: TrisNitro, S. aureus ATCC# 6538, 24 hrs, 1/10 TSB, inoculum 1.808E+06 CFU/ml, read-out: CB (MIC of compound B acting alone)): 500 µg/mL

SMILES: CC1(C)COCN1 [DMO, 4,4-dimethyloxazolidine]
- MIC ([1]; ATCC15442, 24 h, A: Surf. A, B: DMO, P. aeruginosa ATCC#15442, 24 hrs, inoculum 8.134+07 CFU/ml, read-out: CB (MIC of compound B acting alone)): 80 µg/mL
- MIC ([3]; ATCC16404, A: Surf. A, B: DMO, A. niger ATCC#16404, 3rd Day, inoculum 1.156E+06 CFU/ml, read-out: CB (MIC of compound B acting alone)): 60 µg/mL
- MIC ([3]; ATCC16404, A: Surf. D, B: DMO, A. niger ATCC# 16404, 3rd day, inoculum 1.156E+06, read-out: CB (MIC of compound B acting alone)): 400 µg/mL
- MIC ([3]; ATCC16404, A: Surf. E, B: DMO, A. niger ATCC#16404, 3rd Day, inoculum 1.56E+06 CFU/ml, read-out: CB (MIC of compound B acting alone)): 800 µg/mL
- MIC ([4]; ATCC10203, 48 h, A: Surf. E, B: DMO, C. albicans ATCC#10203, 48 hrs, inoculum 1808E+06, read-out: CB (MIC of compound B acting alone)): 1000 µg/mL
- MIC ([4]; ATCC 10203 / ATCC 10231, 48 h, A: Surf. D, B: DMO, C. albicans ATCC#10231, 48 hrs, inoculum 5.726E+05 CFU/ml, read-out: CB (MIC of compound B acting alone)): 1000 µg/mL
- MIC ([4]; ATCC 10203 / ATCC 10231, A: Surf. A, B: DMO, C. albicans ATCC#10231, 3rd Day, inoculum 1.156E+06 CFU/ml, read-out: CB (MIC of compound B acting alone)): 1000 µg/mL
- MIC ([2]; A: Surf. D, B: 1135, S. aureus ATCC#6538, 24 hrs, 1/10 TSB, inoculum 1.16E+08, read-out: CB (MIC of compound B acting alone)): 80 µg/mL
- MIC ([2]; A: Surf. E, B: DMO, ATCC# 6538, 24 hrs, 1/10 TSB, inoculum 1.80E+06 CFU/ml, read-out: CB (MIC of compound B acting alone)): 80 µg/mL
- MIC ([2]; read-out: CB (MIC of compound B acting alone)): 50 µg/mL

SMILES: Cl/C=C\C[N+]12CN3CN(CN(C3)C1)C2.[Cl-] [CTAC, cis-1-(3-chloroallyl)-3,5,7-triaza-1-azoniaadamantane chloride]
- MIC ([1]; ATCC15442, 72 h, A: Surf. A, B: CTAC, P. aeruginosa ATCC#15442, 3rd Day, inoculum 1.156E+06, read-out: CB (MIC of compound B acting alone)): 600 µg/mL
- MIC ([3]; ATCC16404, A: Surf. D, B: CTAC, A. niger ATCC#16404, 3rd day, inoculum 1.156E+06, read-out: CB (MIC of compound B acting alone)): 1000 µg/mL
- MIC ([4]; ATCC10203, 48 h, A: Surf. D, B: CTAC, C. albicans ATCC#10203, 48 hrs, inoculum 5.726E+05 CFU/ml, read-out: CB (MIC of compound B acting alone)): 1000 µg/mL
- MIC ([4]; ATCC10203, 48 h, A: Surf. E, B: CTAC, C. albicans ATCC 10203, 48 hrs, inoculum 1.808E+05, read-out: CB (MIC of compound B acting alone)): 3000 µg/mL
- MIC ([2]; A: Surf. D, B: CTAC, S. aureus ATCC# 6538, 24 hrs, 1/10 TSB, inoculum 1.808E+05, read-out: CB (MIC of compound B acting alone)): 300 µg/mL
- MIC ([2]; A: Surf. E, B: CTAC, S. aureus ATCC# 6538, 24 hrs, 1/10 TSB, inoculum 1.8E+06, read-out: CB (MIC of compound B acting alone)): 200 µg/mL
